Assay results: US5786344A, “Camptothecin drug combinations and methods with reduced side effects” (priority 1995, dated 1998)
Values joined by “and” are separate entries in the source; they are usually repeats but may differ in a detail not shown here. Identical values can stand only once. “Also recorded” adds a separate entry of the source. Like-named read-outs stand apart in the source and are kept apart here.

Legend:
[1] = sodium salt; cited from earlier work
[2] = test system: DNA topoisomerase 1; settings: cited from earlier work
[3] = test system: tumors; settings: cited from earlier work
[4] = gastrointestinal tract or solution; cited from earlier work
[5] = cited from earlier work
[6] = test system: p-glycoprotein; settings: mouse, in vivo; cited from earlier work
[7] = test system: O . volvulus microfilaria; settings: cited from earlier work
[8] = test system: glucuronosyltransferase; settings: cited from earlier work
[9] = test system: multi-drug resistance (MDR) P388 cells; settings: cited from earlier work
[10] = test system: p-glycoprotein; settings: cited from earlier work
[11] = test system: p-glycoprotein; settings: cited from earlier work; remark: listed apart in the source
[12] = biological target: T1, p-glycoprotein (Homo sapiens, UniProt P08183); assay: in vitro; type: binding
T1 construct: membrane vesicles from the multidrug resistant breast tumor cell line; endogenous in cells; host or cells: MCF-7/Adr (multidrug resistant human breast cancer cell line), membrane vesicles
From the text: FIG. 5. […]. Membrane vesicles from the multidrug resistant human breast cancer tumor cell line […] were used. […].

[13] = Phase I pharmacokinetics of CPT-11, SN-38 and SN-38G in plasma/urine after 90 min iv infusion
Method: All patients met the standard laboratory criteria including criteria for adequate organ function. Informed, written consent was obtained from all patients prior to their first dose of CPT-11. The drug was given in 500 cc normal saline by intravenous infusion over 90 minutes on a weekly basis for four doses in a sixweek cycle. […] A second cycle was given with the same dose and schedule used during cycle 1. […] Patients who experienced dose limiting neutropenia were eligible to receive G-CSF at 5 μg/kg/day according to the criteria defined below.
To determine drug and metabolite levels, heparinized blood samples obtained on the first cycle of therapy, were centrifuged and the plasma was stored at -70° C. until analysis. CPT (camptothecin, 1 μg/ml, obtained from the National Cancer Institute, Bethesda, Md.) was used as an internal standard. One hundred μl of plasma was extracted with 2 ml of methanol, centrifuged at 2500×g for 10 min and the supernatant was evaporated to dryness. Reconstitution was done with 200 μl of methanol containing 0.1% 10M HCL (pH~2.0). For the estimation of SN-38G, plasma samples were extracted as described above. Prior to reconstitution, the samples were incubated with 1000 U of glucuronidase (Sigma Chemical Co., St. Louis, Mo.) for 2 hours at 37° C.
Analysis was done using a C18 column (μBondapak, 10 μm, 3.9×300 mm; Waters Associates, Milford, Mass.) preceded by a Novapak C18 guard column. […] Detection was monitored by a Hitachi F1050 Fluorescence detector (Hitachi Instruments Inc., Naperville, Ill.) with a λex at 375 nm and λem at 566 nm. […] SN-38G concentrations were determined as the increase in SN-38 concentrations following incubation with glucuronidase.
The plasma concentration-time data of CPT-11, SN-38 and SN-38G were analyzed by non-compartmental analysis using PCNONLIN (SCI, Lexington, Ky.). The area under the plasma concentration-time curve (AUC) from time zero (predose) to the time of the last quantifiable concentration (AUCt) was calculated by the trapezoidal rule. The AUC extrapolated to time infinity (AUCt →.infin.) was estimated by dividing the last quantifiable concentration by the terminal rate constant obtained by the log-linear regression of the terminal elimination phase. The AUC was the summation of AUCt and AUCt→.infin.. Clearance (CL) was estimated as the ratio of the dose and AUC.
The present study employed this principle to obtain an estimate of SN-38 excreted in the bile. Since glucuronidation is the major pathway of elimination of SN-38, the fraction of SN-38 not conjugated would be primarily excreted in the bile. The net biliary concentration of SN-38 would then be a resultant of its formation and elimination. This concentration was expressed as the "biliary ratio" which was the ratio of AUC of SN-38 to SN-38G. To control for individual variability in the amount of available drug, the ratio was multiplied by the AUC of CPT-11 to obtain a "biliary index" of SN-38.
The nonparametric Mann-Whitney test was employed to test for differences in pharmacokinetic outcomes between two patient groups, defined by the worst severity of diarrhea experienced in the first two cycles of CPT-11 treatment. Statistical tests were performed in the Number Cruncher Statistical System (Dr. Jerry Hintz, Kaysville, Utah). A two-sided significance level of less than or equal to 0.05 was considered statistically significant.

[14] = cited from earlier work; remark: listed apart in the source
[15] = animal studies; cited from earlier work
[16] = nude mice, accumulation in the intestine; cited from earlier work
[17] = test system: p-glycoprotein; settings: rat, in vivo
Method: Animal protocol: Female Wistar rats (~200 gm) having a permanent catheter installed in the right jugular vein were obtained from Charles River Breeding Laboratories (Wilmington, Mass.).
The catheter was flushed with 500 μl of physiologic saline after each drug administration.
After each sample the catheter was flushed with an equal volume of physiologic saline. The samples were immediately centrifuged at 2500×g for 10 minutes and the plasma obtained was stored at -70° C. until analysis.
Data Analysis: The plasma concentration-time profile of the control and pretreated groups of rats were analyzed using non-compartmental methods (PCNONLIN, SCI, Lexington, Ky.). […] The nonparametric Mann-Whitney test was used to test for differences in AUC between the control and pretreated groups.

T1 sequence (P08183 whole entry): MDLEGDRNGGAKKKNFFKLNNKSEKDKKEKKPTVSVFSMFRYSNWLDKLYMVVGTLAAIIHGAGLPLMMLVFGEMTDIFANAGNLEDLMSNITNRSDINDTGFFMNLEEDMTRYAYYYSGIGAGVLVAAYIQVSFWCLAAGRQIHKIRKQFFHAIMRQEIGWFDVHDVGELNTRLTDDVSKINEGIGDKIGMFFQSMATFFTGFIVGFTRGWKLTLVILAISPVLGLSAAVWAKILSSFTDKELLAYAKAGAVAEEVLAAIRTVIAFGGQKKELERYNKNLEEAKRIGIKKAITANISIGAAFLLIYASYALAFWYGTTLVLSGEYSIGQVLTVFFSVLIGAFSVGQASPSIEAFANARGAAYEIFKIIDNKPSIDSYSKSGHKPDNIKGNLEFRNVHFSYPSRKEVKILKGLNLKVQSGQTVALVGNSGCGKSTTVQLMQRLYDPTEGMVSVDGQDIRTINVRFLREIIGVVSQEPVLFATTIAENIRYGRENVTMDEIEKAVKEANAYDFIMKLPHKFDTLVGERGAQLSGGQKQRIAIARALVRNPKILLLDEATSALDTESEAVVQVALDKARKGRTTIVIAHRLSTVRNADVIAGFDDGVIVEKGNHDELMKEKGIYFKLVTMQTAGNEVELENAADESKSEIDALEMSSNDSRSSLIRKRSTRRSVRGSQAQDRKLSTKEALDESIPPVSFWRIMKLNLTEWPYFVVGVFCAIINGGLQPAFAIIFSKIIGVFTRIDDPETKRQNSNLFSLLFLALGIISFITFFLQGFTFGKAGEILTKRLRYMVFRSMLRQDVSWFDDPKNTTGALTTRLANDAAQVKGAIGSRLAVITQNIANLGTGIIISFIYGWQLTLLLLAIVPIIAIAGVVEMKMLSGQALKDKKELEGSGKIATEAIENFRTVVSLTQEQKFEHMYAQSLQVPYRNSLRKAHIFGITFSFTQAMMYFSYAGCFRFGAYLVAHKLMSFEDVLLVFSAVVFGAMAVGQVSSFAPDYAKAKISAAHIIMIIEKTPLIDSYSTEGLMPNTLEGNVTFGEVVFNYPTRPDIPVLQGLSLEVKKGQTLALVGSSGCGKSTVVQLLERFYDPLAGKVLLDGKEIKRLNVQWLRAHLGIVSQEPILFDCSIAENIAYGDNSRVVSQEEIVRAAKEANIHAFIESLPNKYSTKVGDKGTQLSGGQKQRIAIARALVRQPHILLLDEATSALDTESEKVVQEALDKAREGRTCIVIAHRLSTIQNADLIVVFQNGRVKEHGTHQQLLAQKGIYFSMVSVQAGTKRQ

**Q.** For `CC[C@@]1(O)C(=O)OCc2c1cc1n(c2=O)Cc2cc3ccccc3nc2-1` [Camptothecin], which “dose-limiting toxicity in early clinical trials” value [1] is on record?
**A.** Its value is “severe dose-limiting hemorrhagic cystitis and unpredictable myelosuppression”.

**Q.** And the “concentration producing nicks in the DNA” value [2]?
**A.** Its value is “about 0.5 μM”.

**Q.** What about the antitumor activity reduction ([3]; sodium salt vs closed lactone) of the same compound?
**A.** The antitumor activity reduction was “about 10 fold”.

**Q.** With `O.O=P1(N(CCCl)CCCl)NCCCO1` (centres unmarked) [Cyclophosphamide, 2H-1,3,2-Oxazaphosphorin-2-amine, N,N-bis(2-chloroethyl)tetrahydro-, 2-oxide, monohydrate] as the compound, how does the stability [4] read?
**A.** Its stability is “stable in the gastrointestinal tract”.

**Q.** Which “time to peak plasma concentration” value ([5]; oral) does the source give for `CC[C@H](C)[C@H]1O[C@]2(CC[C@@H]1C)C[C@@H]1C[C@@H](C/C=C(\C)[C@@H](O[C@H]3C[C@H](OC)[C@@H](O[C@H]4C[C@H](OC)[C@@H](O)[C@H](C)O4)[C@H](C)O3)[C@@H](C)/C=C/C=C3\CO[C@@H]4[C@H](O)C(C)=C[C@@H](C(=O)O1)[C@]34O)O2` [Ivermectin] here?
**A.** Its value is at most 4 h.

**Q.** And the half-life ([5]; plasma or terminal half-life)?
**A.** The half-life was “about 10 hours”.

**Q.** What about the “sensitivity of p-glycoprotein-disrupted mice” value [6] of the same compound?
**A.** The value was “increased sensitivity”.

**Q.** What about the cure of strongyloidiasis ([7]; single dose) of the same compound?
**A.** The cure of strongyloidiasis was “can cure human strongyloidiasis”.

**Q.** And the “reduction of microfilaria in skin and ocular tissues” value ([7]; single oral dose 0.15 to 0.20 mg/kg)?
**A.** The value was “rapid and marked reduction”.

**Q.** Which “induction of phase II enzymes / glucuronidation” value [8] does the source give for `Cc1c(-c2cnccn2)ssc1=S` [Oltipraz, 4-methyl-5(2-pyrazinyl)-3H-1,2-dithiole-3-thione] here?
**A.** Its value is “inducer of GST and UDP-glucuronosyltransferase”.

**Q.** With `C/C=C/C[C@@H](C)C(=O)[C@H]1C(=O)N[C@@H](C(C)C)C(=O)N(C)CC(=O)N(C)[C@@H](CC(C)C)C(=O)N[C@@H](C(C)C)C(=O)N(C)[C@@H](CC(C)C)C(=O)N[C@@H](C)C(=O)N[C@H](C)C(=O)N(C)[C@@H](CC(C)C)C(=O)N(C)[C@@H](CC(C)C)C(=O)N(C)[C@@H](C(C)C)C(=O)N1C` [SDZ PSC 833] as the compound, how does the “activity relative to cyclosporine A in restoring drug sensitivity” value [9] read?
**A.** The value was “at least one order of magnitude more active than cyclosporine A”.

**Q.** What about the “effect of acidic extracellular conditions on inhibitory activity” value ([10]; acidic pH) of the same compound?
**A.** The value was “not affected by acidic extracellular conditions”.

**Q.** What about the “inhibition of vinblastine transport” value [10] of the same compound?
**A.** Its value is “the most effective inhibitor”.

**Q.** What about the lowest inhibitory concentration [10] of the same compound?
**A.** The lowest inhibitory concentration was 10 ng/ml and 9 nM.

**Q.** And the “inhibition of / interaction with p-glycoprotein” value [11]?
**A.** Its value is “inhibited p-glycoprotein; also recorded: effective inhibitor; also recorded: effective at inhibiting p-glycoprotein”.

**Q.** What about the “persistence of p-glycoprotein inhibition” value ([11]; single pulse exposure) of the same compound?
**A.** The value was “still exhibiting inhibition of p-glycoprotein function even two days after a single pulse exposure”.

**Q.** And the “p-glycoprotein inhibition relative to comparator” value ([11]; vs verapamil, cyclosporine A, progesterone or anthracycline analogues)?
**A.** Its value is “more effective than cyclosporine A; also recorded: stronger inhibitors than verapamil”.

**Q.** What does the source list for `CCc1c2c(nc3ccc(O)cc13)-c1cc3c(c(=O)n1C2)COC(=O)[C@]3(O)CC` [SN-38, 7-ethyl-10-hydroxy-camptothecin]?
**A.** substrate of p-glycoprotein [12]: substrates of p-glycoprotein; inhibition at 100 µM ([12]; human, mcf-7/adr membrane vesicles): 60%; increase in AUC SN-38 from secondary peak ([13]; in vivo): ~12%; increase of AUC from 100 to 175 mg/m^2 ([13]; in vivo): 3.7 fold; interpatient variability of AUC (percent coefficient of variation) ([13]; in vivo): 2-44%; terminal half-life of closed ring forms ([5]; human, in vivo): 7.6 to 8.8 h; biliary radioactivity excreted over 24 h as ([14]; rat, in vivo): 9%; potency relative to the parent drug CPT-11 ([3]; in vivo): 600-1000 times; route of excretion [15]: excreted primarily into bile; cause of diarrhea [16]: responsible for the diarrhea

**Q.** Which results are given for `CCc1c2c(nc3ccc(O[C@@H]4O[C@H](C(=O)O)[C@@H](O)[C@H](O)[C@H]4O)cc13)-c1cc3c(c(=O)n1C2)COC(=O)[C@]3(O)CC` [SN-38G]?
**A.** increase of AUC from 100 to 175 mg/m^2 ([13]; 1.75 fold dose range): 2.7 fold; urinary estimates of SN-38G, fold lower in patients with grade 3-4 diarrhea (average) ([13]; grade 3-4 diarrhea): 2.5 fold; increase in AUC between 145 and 175 mg/m^2 ([13]; in vivo): no increase; biliary radioactivity excreted over 24 h as ([14]; rats, 24 h): 22%; Overall Increase in AUC SN-38G [17]: 1.93 fold
